pIC50: −log10 of the molar value.
Columns and labels:
[1] = biological target: T1, α1d-AR (Homo sapiens, UniProt P25100); assay: radioligand ([125I]-HEAT) receptor binding assay, COS cell membranes, α1d-AR; conditions: Tables A-J, [125I]-HEAT 50 pM
T1 construct: expressed in transfected cells; host or cells: COS cells (pcDNA3 vector, DEAE-dextran transient transfection); membrane preparation
T1 sequence (P25100 1-572): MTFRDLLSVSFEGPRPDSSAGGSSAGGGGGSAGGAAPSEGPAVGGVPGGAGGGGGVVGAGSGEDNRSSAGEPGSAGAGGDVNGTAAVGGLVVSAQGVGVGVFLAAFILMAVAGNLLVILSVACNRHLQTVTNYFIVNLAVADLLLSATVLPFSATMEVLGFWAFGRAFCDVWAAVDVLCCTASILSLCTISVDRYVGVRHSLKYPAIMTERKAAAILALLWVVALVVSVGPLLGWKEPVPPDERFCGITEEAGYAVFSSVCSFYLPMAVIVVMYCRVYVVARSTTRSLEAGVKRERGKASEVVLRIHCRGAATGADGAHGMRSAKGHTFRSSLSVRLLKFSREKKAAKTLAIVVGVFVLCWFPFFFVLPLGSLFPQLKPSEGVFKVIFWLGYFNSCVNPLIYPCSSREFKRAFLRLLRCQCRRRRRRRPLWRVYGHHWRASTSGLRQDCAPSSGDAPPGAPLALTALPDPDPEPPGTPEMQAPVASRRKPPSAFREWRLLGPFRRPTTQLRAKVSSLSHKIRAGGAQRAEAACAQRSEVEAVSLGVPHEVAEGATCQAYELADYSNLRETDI
Source text: The first assay tested the ability of compounds of Formula I to bind to membrane bound receptors α1a-AR, α1b-AR and α1d-AR.
The DNA sequences of the three cloned human α1-AR subtypes have been published. […] We used published DNA sequence information to design-primers for use in RT-PCR amplification of each subtype to obtain cloned cDNAs. Human poly A+ RNA was obtained from commercially available sources and included hippocampus and prostate samples, sources which have been cited in the literature. For the primary screen a radio ligand binding assay was used which employed membrane preparations from cells expressing the individual cloned receptor cDNAs. Radiolabeled ligands with binding activity on all three subtypes (non-selective) are commercially available ([125I]-HEAT, [3H]-prazosin).
Each α1 receptor subtype was cloned from poly A+ RNA by the standard method of reverse transcription-polymerase chain reaction (RT-PCR). The following sources of polyA+ RNA were used for the cloning of the al receptor subtypes: α1a-AR, human hippocampus and prostate, α1b-AR, human hippocampus, α1d-AR, human hippocampus. The resulting cDNAs were cloned into the pcDNA3 mammalian expression vector (Invitrogen Corp., San Diego Calif.). Each DNA was sequenced for verification and to detect any possible mutations introduced during the amplification process. Any deviation in sequence from the published consensus for each receptor subtype was corrected by site-directed mutagenesis.
The three α1-AR subtypes (a, b, d) were transfected into COS cells using a standard DEAE-dextran procedure with a chloroquine shock. In this procedure, each tissue culture dish (100 mm) was inoculated with 3.5×10^6 cells and transfected with 10 μg of DNA. Approximately 72 hours post-transfection, the cells were harvested and COS membranes were prepared. Transfected COS cells from 25 plates (100 mm) were scraped and suspended in 15 mL of TE buffer (50 mM Tris-HCl, 5 mM EDTA, pH7.4). The suspension was disrupted with a homogenizer. It was then centrifuged at 1000×g for 10 minutes at 4° C. The supernatant was centrifuged at 34,500×g for 20 minutes at 4° C. The pellet was resuspended in 5 mL TNE buffer (50 mM Tris-HCl, 5 mM EDTA, 150 mM NaCl, pH7.4). The resulting membrane preparation was aliquoted and stored at −70° C. The protein concentration was determined following membrane solubilization with TritonX-100.
The ability of each compound to bind to each of the α1-AR subtypes was assessed in a receptor binding assay. [125I]-HEAT, a non-selective α1-AR ligand, was used as the radiolabeled ligand. Each well of a 96-well plate received: 140 μL TNE, 25 μL [125I]-HEAT diluted in TNE (50,000 cpm; final concentration 50 pM), 10 μL test compound diluted in DMSO (final concentration 1 pM-10 μM), […] COS cell membrane preparation expressing one of the three α1-AR subtypes (0.05-0.2 mg membrane protein). The plate was incubated for 1 hour at room temperature and the reaction mixtures were filtered through a Packard GF/C Unifilter filter plate. The filter plate was dried for 1 hour in a vacuum oven. Scintillation fluid ([…]) was added to each well, and the filter plate was counted in a Packard Topcount scintillation counter. Data was analyzed using GraphPad Prism software.
Tables A-J list the IC50 values expressed in nanomolar concentration for select compounds of the invention in all receptor subtypes.

[2] = tested on: rat aorta tissues; assay: norepinephrine-induced contractile response of rat aorta tissue; format: tissue-based; conditions: rat aortic rings, 37° C., pH 7.4, read-out: IC50, inhibition of contractile response in aortic tissue
Source text: The contractile responses of rat prostatic tissue and rat aorta tissues were examined in the presence and absence of antagonist compounds. As an indication of the selectivity of antagonism, test compound effects on vascular smooth muscle contractility (α1b-AR and α1d-AR) were compared to the effects on prostatic smooth muscle (α1a-AR). Strips of prostatic tissue and aortic rings were obtained from Long Evans derived male rats weighing 275 grams and sacrificed by cervical dislocation. The prostate tissue was placed under 1 gram tension in a 10 ml bath containing phosphate buffered saline pH 7.4 at 32° C. and isometric tension was measured with force transducers. The aortic tissue was placed under 2 grams tension in a 10 ml bath containing phosphate buffered saline pH 7.4 at 37° C. The ability of test compound to reduce the norepinephrine-induced contractile response by 50% (IC50) was determined.

CC(C)Oc1ccccc1N1CCN(Cc2cc(CN3CCCCC3=O)n[nH]2)CC1 [Compound 3]
pIC50 [1]: 6.75 | pIC50 [2]: 4.50

CC(C)Oc1ccccc1N1CCN(Cc2ncc(CN3CCCCC3=O)s2)CC1 [Compound 16]
pIC50 [1]: 6.68 | pIC50 [2]: 4.87

Source: US6841682B2, “Heterocycles useful in the treatment of benign prostatic hyperplasia” (Janseen Pharmaceutica N.V., priority 1997, dated 2005)
